Experiment in all cases: Eurofins kinase selectivity profile against 380 other human recombinant kinases (Table S2)
Common to all, as to assay type: biochemical

Test [1] has as its target T1, 380 human recombinant protein kinases (Homo sapiens, UniProt O75914).
T1 construct: purchased Eurofins (Celle Lévescault)
The conditions noted are these: PAK3(h), read-out: Inhibition rate. In a few lines: (§1)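 Commercial selectivity screen of the test compound against a panel of 380 human recombinant protein kinases, run by an outside contractor at several compound concentrations to check whether its potency was specific for MK2.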

Test [2] deals with T2, 380 human recombinant protein kinases (Homo sapiens, UniProt P36896).
T2 construct: purchased Eurofins (Celle Lévescault)
T2 sequence (P36896 24-505): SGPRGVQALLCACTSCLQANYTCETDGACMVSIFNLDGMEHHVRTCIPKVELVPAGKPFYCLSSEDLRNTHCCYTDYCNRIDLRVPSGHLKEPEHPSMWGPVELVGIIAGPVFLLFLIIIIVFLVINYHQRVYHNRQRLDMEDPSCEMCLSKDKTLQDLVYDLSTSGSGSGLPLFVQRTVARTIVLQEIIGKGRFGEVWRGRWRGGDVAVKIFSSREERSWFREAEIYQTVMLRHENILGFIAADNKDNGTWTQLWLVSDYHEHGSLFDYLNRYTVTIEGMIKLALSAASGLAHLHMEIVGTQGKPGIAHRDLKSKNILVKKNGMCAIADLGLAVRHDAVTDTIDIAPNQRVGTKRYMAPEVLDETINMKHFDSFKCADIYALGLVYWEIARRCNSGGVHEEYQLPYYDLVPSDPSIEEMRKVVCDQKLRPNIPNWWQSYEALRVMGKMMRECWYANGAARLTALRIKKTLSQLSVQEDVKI
Conditions: ALK4(h), read-out: Inhibition rate. In a few lines: as §1

The target of test [3] is T3, 380 human recombinant protein kinases (Homo sapiens, UniProt P30530).
T3 construct: purchased Eurofins (Celle Lévescault)
T3 sequence (P30530 26-894): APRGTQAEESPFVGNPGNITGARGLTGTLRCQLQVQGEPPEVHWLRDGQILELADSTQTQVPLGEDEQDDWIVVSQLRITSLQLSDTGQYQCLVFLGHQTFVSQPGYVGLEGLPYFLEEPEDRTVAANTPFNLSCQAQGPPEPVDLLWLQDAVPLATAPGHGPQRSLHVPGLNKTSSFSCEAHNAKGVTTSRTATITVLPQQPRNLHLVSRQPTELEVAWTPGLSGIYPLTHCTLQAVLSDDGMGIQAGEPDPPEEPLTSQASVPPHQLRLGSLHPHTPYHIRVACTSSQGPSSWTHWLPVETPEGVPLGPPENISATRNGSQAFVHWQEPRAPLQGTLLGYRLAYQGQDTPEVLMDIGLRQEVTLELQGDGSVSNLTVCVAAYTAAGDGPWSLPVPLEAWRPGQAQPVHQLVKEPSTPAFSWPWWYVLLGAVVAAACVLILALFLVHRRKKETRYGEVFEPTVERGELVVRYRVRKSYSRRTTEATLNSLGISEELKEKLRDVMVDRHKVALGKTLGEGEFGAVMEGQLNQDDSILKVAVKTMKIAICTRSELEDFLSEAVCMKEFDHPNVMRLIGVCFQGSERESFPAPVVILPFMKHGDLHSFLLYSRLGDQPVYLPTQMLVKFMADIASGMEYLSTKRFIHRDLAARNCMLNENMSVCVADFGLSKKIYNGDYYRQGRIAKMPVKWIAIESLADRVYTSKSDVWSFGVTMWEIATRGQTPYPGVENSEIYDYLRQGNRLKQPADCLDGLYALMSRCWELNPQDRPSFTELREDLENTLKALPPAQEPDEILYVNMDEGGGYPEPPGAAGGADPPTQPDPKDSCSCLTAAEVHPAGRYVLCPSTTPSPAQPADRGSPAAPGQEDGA
Conditions: Axl(h), read-out: Inhibition rate. In a few lines:
as §1

The target in test [4] is T4, 380 human recombinant protein kinases (Homo sapiens, UniProt P46734).
T4 construct: purchased Eurofins (Celle Lévescault)
T4 sequence (P46734 1-347): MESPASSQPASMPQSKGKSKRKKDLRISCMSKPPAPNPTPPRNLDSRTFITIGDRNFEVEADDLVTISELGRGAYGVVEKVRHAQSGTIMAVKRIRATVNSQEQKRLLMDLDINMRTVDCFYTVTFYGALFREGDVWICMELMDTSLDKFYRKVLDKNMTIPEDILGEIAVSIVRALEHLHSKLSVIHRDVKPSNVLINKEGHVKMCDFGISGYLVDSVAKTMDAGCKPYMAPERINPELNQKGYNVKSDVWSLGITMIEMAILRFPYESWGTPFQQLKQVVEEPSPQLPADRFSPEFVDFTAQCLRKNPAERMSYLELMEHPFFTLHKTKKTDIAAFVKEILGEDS
The conditions noted are these: MKK3(h), read-out: Inhibition rate. In a few lines:
as §1

Test [5] deals with T5, 380 human recombinant protein kinases (Homo sapiens, UniProt Q9HAZ1).
T5 construct: purchased Eurofins (Celle Lévescault)
The conditions noted are these: CLK4(h), read-out: Inhibition rate. In a few lines: as §1

Test [6] has as its target T6, 380 human recombinant protein kinases (Homo sapiens, UniProt Q92772).
T6 construct: purchased Eurofins (Celle Lévescault)
T6 sequence (Q92772 1-493): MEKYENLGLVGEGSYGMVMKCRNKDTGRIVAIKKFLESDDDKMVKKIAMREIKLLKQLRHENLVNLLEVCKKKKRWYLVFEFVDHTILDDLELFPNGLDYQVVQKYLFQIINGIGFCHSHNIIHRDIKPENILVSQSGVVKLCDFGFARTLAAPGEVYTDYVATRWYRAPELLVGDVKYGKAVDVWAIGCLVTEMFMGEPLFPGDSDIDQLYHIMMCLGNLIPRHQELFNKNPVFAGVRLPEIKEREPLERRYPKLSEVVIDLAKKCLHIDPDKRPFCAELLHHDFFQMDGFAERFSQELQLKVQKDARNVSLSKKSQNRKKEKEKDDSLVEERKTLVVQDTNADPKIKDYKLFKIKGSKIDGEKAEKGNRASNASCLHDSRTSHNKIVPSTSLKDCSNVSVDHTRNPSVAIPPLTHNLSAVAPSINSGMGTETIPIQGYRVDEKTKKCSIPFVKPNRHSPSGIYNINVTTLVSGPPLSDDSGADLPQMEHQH
Conditions: CDKL2(h), read-out: Inhibition rate. In a few lines:
as §1

For orientation: inhibition means the change of the read-out against control, counted positive when it falls.

T5 sequence (Q9HAZ1 whole entry): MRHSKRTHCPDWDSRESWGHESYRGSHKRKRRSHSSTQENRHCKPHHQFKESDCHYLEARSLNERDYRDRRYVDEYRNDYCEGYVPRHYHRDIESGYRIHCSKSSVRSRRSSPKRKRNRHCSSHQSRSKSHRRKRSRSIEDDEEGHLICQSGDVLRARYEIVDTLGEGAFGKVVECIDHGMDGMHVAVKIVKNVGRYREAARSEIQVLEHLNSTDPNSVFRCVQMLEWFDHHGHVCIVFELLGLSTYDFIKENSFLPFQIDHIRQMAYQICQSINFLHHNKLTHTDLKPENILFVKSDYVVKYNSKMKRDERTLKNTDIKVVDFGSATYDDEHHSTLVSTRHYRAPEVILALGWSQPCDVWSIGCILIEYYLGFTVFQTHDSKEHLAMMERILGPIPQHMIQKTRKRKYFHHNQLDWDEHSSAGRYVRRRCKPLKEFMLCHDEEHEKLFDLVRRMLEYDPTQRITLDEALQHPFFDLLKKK
T1 sequence (O75914 whole entry): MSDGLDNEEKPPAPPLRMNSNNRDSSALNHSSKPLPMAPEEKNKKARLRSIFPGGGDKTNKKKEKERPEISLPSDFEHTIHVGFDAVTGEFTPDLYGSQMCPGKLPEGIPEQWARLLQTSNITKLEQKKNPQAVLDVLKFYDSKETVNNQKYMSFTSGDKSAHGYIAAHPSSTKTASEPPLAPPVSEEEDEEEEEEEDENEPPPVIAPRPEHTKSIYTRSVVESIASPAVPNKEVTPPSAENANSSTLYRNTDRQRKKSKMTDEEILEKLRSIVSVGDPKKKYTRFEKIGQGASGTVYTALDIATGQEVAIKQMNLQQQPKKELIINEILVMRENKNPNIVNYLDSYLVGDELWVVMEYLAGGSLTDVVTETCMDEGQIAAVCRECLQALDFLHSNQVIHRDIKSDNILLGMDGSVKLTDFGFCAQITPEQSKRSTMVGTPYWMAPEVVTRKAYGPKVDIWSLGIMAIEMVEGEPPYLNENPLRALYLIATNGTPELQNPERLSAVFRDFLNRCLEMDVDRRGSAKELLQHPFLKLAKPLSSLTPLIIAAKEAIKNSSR

For `C=CC(=O)Nc1cc(-c2cc(-c3cc4c([nH]3)CCNC4=O)ccn2)ccc1OC(F)(F)F` [compound 11], the inhibition at 0.01 µM was -4% in test [1] (10 nM); 26% in test [2] (10 nM); -21% in test [3] (10 nM); 6% in test [4] (10 nM); -6% in test [5] (10 nM); 31% in test [6] (10 nM). Besides, the inhibition at 0.1 µM in test [1] (100 nM) is 0%; in test [2] (100 nM) it was 16%; in test [3] (100 nM) it was -6%; in test [4] (100 nM), -2%; in test [5] (100 nM), 25%; in test [6] (100 nM), 50%. The inhibition at 1 µM is -3% in test [1] (1000 nM); 6% in test [2] (1000 nM); 26% in test [3] (1000 nM); -1% in test [4] (1000 nM); 76% in test [5] (1000 nM); 54% in test [6] (1000 nM).

The values above are taken from PMC11233931, “Remodeling tumor‐associated macrophage for anti‐cancer effects by rational design of irreversible inhibition of mitogen‐activated protein kinase‐activated protein kinase 2” (MedComm, 2024).
